Measured values: patent US9868742B2, “Substituted imidazo[1,2-b]pyridazines, substituted imidazo[1,5-b] pyridazines, related compounds, and their use in the treatment of medical disorders” (Lysosomal Therapeutics Inc., priority 2016, dated 2018)

Target: T1, glucocerebrosidase (Gcase) (Homo sapiens, UniProt P04062)
T1 sequence (P04062 40-536): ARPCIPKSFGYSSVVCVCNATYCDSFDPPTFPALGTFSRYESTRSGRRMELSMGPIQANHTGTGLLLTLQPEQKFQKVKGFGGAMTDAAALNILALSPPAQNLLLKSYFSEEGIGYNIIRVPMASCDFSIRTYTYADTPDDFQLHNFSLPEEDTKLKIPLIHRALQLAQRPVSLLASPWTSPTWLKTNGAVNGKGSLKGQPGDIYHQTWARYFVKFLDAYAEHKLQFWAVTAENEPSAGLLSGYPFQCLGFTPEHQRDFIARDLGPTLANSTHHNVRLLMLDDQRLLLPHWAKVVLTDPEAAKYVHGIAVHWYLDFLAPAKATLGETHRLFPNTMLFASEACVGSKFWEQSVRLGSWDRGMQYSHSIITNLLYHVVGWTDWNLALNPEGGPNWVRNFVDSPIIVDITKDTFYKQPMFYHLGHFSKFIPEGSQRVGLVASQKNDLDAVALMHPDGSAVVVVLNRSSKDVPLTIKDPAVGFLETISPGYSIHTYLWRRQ
Experiment: Glucocerebrosidase (Gcase) activation assay, 4-methylumbelliferyl-beta-D-glucopyranoside substrate with saposin C
Format: biochemical
Settings: 10 nM GCase, 100 nM saposin C, pH 4.7
Description: The ability of exemplary compounds to activate glucocerebrosidase (Gcase) was measured.
A 484 μL aliquot of a 1.0 mg/mL solution of phosphatidylserine (PS) (Sigma P7769) in chloroform was evaporated under a stream of nitrogen for 1 hour. The lipid film was dissolved over 4 minutes of vigorous vortexing in 40 mL of 176 mM K2HPO4/50 mM citric acid (pH 4.7) containing 7.5 μL of triton X-100, resulting in a mixed micellar preparation with a composition of 0.32 mM triton and 0.37 mol % PS. 4-Methylumbelliferyl-beta-D-glucopyranoside (ACROS-337025000) was dissolved in the micellar solution to a final concentration of 2 mM for use as the reaction substrate.
Test compounds were diluted to the desired concentrations with dimethylsulfoxide (DMSO) from 10 mM stocks, and 0.41 μL of the DMSO compound mixture was added to 100 μL of micellar solution containing 10 nM GCase and 100 nM saposin C (Enzo ALX-201-262-C050). Pre-incubation was allowed to occur for 30 minutes at room temperature, after which the reaction was initiated by combining 25 μL of substrate solution with 25 μL of compound/GCase/saposin mixture. The reaction proceeded for 15 minutes at room temperature and was stopped by adding 150 μL of 1M glycine, pH 12.5. The endpoint of the reaction was monitored by measuring fluorescence intensity (excitation: 365 nm; emission: 440 nm) on a SpectraMax i3 instrument (Molecular Devices). […]

CCCCCOC1CCC(NC(=O)c2ncc3c(C)cc(C)nn23)CC1 (centres unmarked)
activation at 0.1 µM (0.1 μM test compound, read-out: Percent Gease Activation 0.1 μM Test Compound): 5 to 20% | activation at 1 µM (1 μM test compound, read-out: Percent Gease Activation 1 μM Test Compound): > 20%
